# Paper PMC2747021, “Synergistic Antibacterial and Anti-Inflammatory Activity of Temporin A and Modified Temporin B In Vivo” (PLoS ONE, 2009)
# No end group written: not given here.
# Assays:
# [1] = test system: Staphilococcus.aureus A170; conditions: single peptide; MIC100, MH broth, about 10^6 CFU/ml, 37°C 20 h, absorbance 600 nm, triplicate
# [2] = test system: Salmonella enterica serovar Paratyphi; assay: Antibacterial activity, MIC100 broth dilution; type: cell-based; conditions: single peptide; MIC100, MH broth, about 10^6 CFU/ml, 37°C 20 h, absorbance 600 nm, triplicate
# Listeria monocytogenes = conditions: 20 h
# gram negative bacteria = conditions: for antimicrobial activity against gram negative bacteria: in words, data not shown
# gram positive bacteria = assay: Antibacterial activity, summary for gram positive bacteria; type: cell-based; conditions: for antimicrobial activity against gram positive bacteria: in words, approximately to the same extent as temporin A, data not shown
# Text: The study included the following species: Staphylococcus aureus (isolate A170, A172, 007), Listeria monocytogenes, Salmonella enterica serovar Paratyphi, Salmonella enterica serovar Typhimurium, Escherichia coli. Isolates were obtained from patients hospitalized at the Medical School of the University of Naples. Specimen were confirmed by PCR assay of the genes sea (S. aureus), MonoA (L. monocytogenes), abe (S. enterica serovar Paratyphi), FliC (S. enterica serovar Typhimurium), sat (E. coli) [20]–[23]. Bacteria were grown at 37°C in TSB medium (S. aureus and L. monocytogenes) or LB medium (the remaining bacterial species) (Difco, Becton Dickinson, Sparks, MD), harvested while in exponential phase (OD600 nm; 0-6-0.8), centrifuged (8×10^3 g for 10 min), washed with saline (0.15 M NaCl) and resuspended in saline (10^6–10^7 CFU/ml).
# Bacteria were grown at 37°C in TSB (S. aureus and L. monocytogenes) or in LB medium (the remaining bacterial species), harvested while in exponential phase (OD600 nm; 0-6-0.8), centrifuged (8×10^3 g for 10 min), washed with saline, resuspended in Muller Hinton (MH) broth at the concentration of approximately 10^6 CFU/ml and distributed, in triplicate, into 96 well plates (60 µl/well), mixed with twofold dilutions of the antimicrobial (TA: 5–100 µg, 40 µl/well; TB-YK: 4–100 µg, 40 µl/well; TA 5 µg+TB-YK 8 µg, 40 µl/well and incubated at 37°C for 20 h. The minimal concentration of the antimicrobial at which 100% inhibition of growth was observed (MIC100) was determined by measuring the absorbance at 600 nm (Biorad microplate reader model 680, Hercules, CA). The antibacterial activity was measured by spotting an aliquot (10 µl) of each well on TSA or LB agar and counting the CFU. A potential synergism between temporins was evaluated by adding combinations of two temporins in a serial twofold dilutions (TA: 5–100 µg;TB-YK: 4–100 µg; 40 µl/well) to wells containing 10^5 CFU/well in 60 µl. The presence of synergism was established as described.
# Escherichian coli = conditions: 20 h
# [3] = test system: Staphilococcus aureus 007; conditions: 20 h
# [4] = test system: Staphilococcus .aureus A172; conditions: 20 h
Substance,MIC [1],MIC [2],MIC (Listeria monocytogenes),MIC (gram negative bacteria; 20 h),MIC (gram positive bacteria; range over the gram positive bacteria tested),MIC (Escherichian coli),MIC [3],MIC [4],antimicrobial activity against gram negative bacteria (gram negative bacteria),antimicrobial activity against gram positive bacteria (gram positive bacteria)
"FLPLIGRVLSGIL-NH2 [TA, temporin A]",10 µg/mL,400 µg/mL,30 µg/mL,125 to 400 µg/mL,10 to 30 µg/mL,125 µg/mL,10 µg/mL,20 µg/mL,,
"H-YLLPI VGNLLKSLL- NH2 [TB-Y, temporin B with one extra tyrosine residue at the N-terminus]",,,,,,,,,totally inactive,active
"H-LLPI VGNLLKSLL- NH2 [TB, temporin B, synthetic temporin B in its native form]",,,,,,,,,totally inactive,active
